Data on 1 compound can be found in publication PMC7828731, “Anti-Aging Potential of Extracts from Washingtonia filifera Seeds” (Plants, 2021).

This experiment has as its target T1, Collagenase from Clostridium histolyticum.
T1 construct: gene colG; commercial native collagenase (Sigma)
The experiment can be described thus: absorbance at […] nm, FALGPA hydrolysis. It counts as biochemical, Hathewaya histolytica. To be noted: FALGPA 0.8 mM; 0.05 M Tricine, pH 7.5, 0.4 M NaCl, 0.01 M CaCl2; 15 min preincubation.

Converted amounts (≈) assume the structure as drawn.

Turning to `O=C(O[C@@H]1Cc2c(O)cc(O)cc2O[C@@H]1c1cc(O)c(O)c(O)c1)c1cc(O)c(O)c(O)c1` [Epigallocatechin gallate], the “IC50 (μg/mL) / Collagenase *” value is 120.8 ± 6.22 µg/mL (≈ 264 µM).
